Source: US11560371B2, “Cereblon binding compounds, compositions thereof, and methods of treatment therewith” (Celgene Corporation, priority 2020, dated 2023)

Target: T1, AR (Homo sapiens, UniProt P10275)
T1 construct: endogenous in cells; host or cells: VCaP cells
T1 sequence (P10275 1-920): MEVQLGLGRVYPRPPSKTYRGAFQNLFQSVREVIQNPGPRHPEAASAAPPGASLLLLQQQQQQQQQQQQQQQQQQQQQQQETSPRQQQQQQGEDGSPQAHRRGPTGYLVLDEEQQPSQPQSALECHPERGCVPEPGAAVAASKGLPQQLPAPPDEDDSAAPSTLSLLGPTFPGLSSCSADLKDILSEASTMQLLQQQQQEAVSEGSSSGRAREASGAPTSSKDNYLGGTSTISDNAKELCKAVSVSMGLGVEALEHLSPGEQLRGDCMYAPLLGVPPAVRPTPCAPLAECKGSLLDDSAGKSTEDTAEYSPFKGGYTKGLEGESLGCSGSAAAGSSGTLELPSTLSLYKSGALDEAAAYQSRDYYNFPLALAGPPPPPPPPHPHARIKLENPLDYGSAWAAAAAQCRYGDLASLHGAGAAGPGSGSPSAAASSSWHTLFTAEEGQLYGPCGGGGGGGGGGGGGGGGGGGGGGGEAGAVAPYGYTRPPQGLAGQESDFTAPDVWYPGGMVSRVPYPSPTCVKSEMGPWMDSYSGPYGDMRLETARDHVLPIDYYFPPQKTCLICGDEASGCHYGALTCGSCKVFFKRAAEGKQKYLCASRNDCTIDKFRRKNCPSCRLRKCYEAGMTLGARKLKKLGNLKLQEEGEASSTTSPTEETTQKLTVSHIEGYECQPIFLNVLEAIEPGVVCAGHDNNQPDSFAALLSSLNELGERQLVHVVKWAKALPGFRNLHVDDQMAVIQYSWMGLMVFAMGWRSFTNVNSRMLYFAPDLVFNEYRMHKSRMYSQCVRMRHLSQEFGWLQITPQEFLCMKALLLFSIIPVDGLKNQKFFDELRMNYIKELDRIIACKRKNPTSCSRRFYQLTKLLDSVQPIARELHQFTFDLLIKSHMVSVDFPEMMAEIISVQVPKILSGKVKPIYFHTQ
Assay: VCAP AR Degradation Assay
Type: cell-based
Details: VCaP cells, 24 h, AR ELISA; for DC50: concentration of compound when AR level = 50% of DMSO control (50% AR degradation); for Y: lowest measured AR level normalized to DMSO control (AR degradation efficiency)
Description: VCAP AR Degradation Assay. Test compounds were pre-dispensed into a Corning CellBind 96-well clear bottom plate (Cat #3300) using an acoustic dispenser to make a 10-point concentration series at 1:3 dilution for each compound. The final top concentration of each compound was 5 μM. DMSO at a final concentration of 0.1% was used as a control. VCaP cells cultured in DMEM with 8% fetal bovine serum (FBS) were seeded at 50K cells per well in a 200 μL volume into the compound plate and incubated at 37° C. in a CO2 incubator for 24 h. The medium was carefully removed from the cells and the plate was placed on ice. […] ice-cold 1× cell lysis buffer from Cell Signaling Technologies (Cat #9803) was added to each well of the cells and the plate was incubated at 4° C. on a shaker for 1 h. Fifteen μL of cell lysate was used for AR ELISA detection using a PathScan Total Sandwich AR ELISA kit (Cell Signaling Technology, Cat #12580). AR levels in compound-treated wells were normalized to that of DMSO control and expressed as percent of control (PoC) (y). A Four Parameter Logistic Model (Sigmoidal Dose-Response Model) was used to determine the compound's DC50, and EC50, using the following equation: y=(A+((B−A)/(1+((C/x)^D)))) • A=YMin (lowest AR level normalized to DMSO control in response to compound treatment, as determined by curve fit) • B=YMax (maximum AR level as determined by curve fit) • C=EC50 • D=Hill Slope • x=compound concentration • EC50=the concentration of compound when y=[…] • DC50=the concentration of the compound when y=50% of DMSO control (50% AR degradation) • y=AR protein level normalized to DMSO control
The lowest measured AR level normalized to DMSO control in response to compound treatment, termed Y value, was used to characterize the compound-mediated AR degradation efficiency.

`Cn1nc(N2CCC(=O)NC2=O)c2cccc(NC(=O)CN3CCN(CCCO[C@H]4CC[C@H](N5C(=S)N(c6cnc(C#N)c(C(F)(F)F)c6)C(=O)C5(C)C)CC4)C[C@@H]3C(F)(F)F)c21` [Cmpd 24, 2-((R)-4-(3-(((trans)-4-(3-(6-cyano-5-(trifluoromethyl)pyridin-3-yl)-5,5-dimethyl-4-oxo-2-thioxoimidazolidin-1-yl)cyclohexyl)oxy)propyl)-2-(trifluoromethyl)piperazin-1-yl)-N-(3-(2,4-dioxotetrahydropyrimidin-1(2H)-yl)-1-methyl-1H-indazol-7-yl)acetamide] was tested, and the DC50 was ≤ 2 nM and the Y was “* (0<Y≤20%)”.
For `C[C@@H]1C[C@@H](CCOC2CCC(N3C(=S)N(c4cnc(C#N)c(C(F)(F)F)c4)C(=O)C3(C)C)CC2)C[C@H](C)N1CC(=O)Nc1cccc2c(N3CCC(=O)NC3=O)nn(C)c12` (stereo partly drawn) [Cmpd 25, 2-((2R,4s,6S)-4-(2-(((trans)-4-(3-(6-Cyano-5-(trifluoromethyl)pyridin-3-yl)-5,5-dimethyl-4-oxo-2-thioxoimidazolidin-1-yl)cyclohexyl)oxy)ethyl)-2,6-dimethylpiperidin-1-yl)-N-(3-(2,4-dioxotetrahydropyrimidin-1(2H)-yl)-1-methyl-1H-indazol-7-yl)acetamide], the DC50 was ≤ 2 nM and the Y was “* (0<Y≤20%)”.
With `Cn1nc(N2CCC(=O)NC2=O)c2cccc(NC(=O)CN3CCN(CCCO[C@H]4CC[C@H](N5C(=S)N(c6ccc(C#N)c(C(F)(F)F)c6)C(=O)C5(C)C)CC4)C[C@@H]3C(F)(F)F)c21` [Cmpd 26, 2-((R)-4-(3-(((trans)-4-(3-(4-Cyano-3-(trifluoromethyl)phenyl)-5,5-dimethyl-4-oxo-2-thioxoimidazolidin-1-yl)cyclohexyl)oxy)propyl)-2-(trifluoromethyl)piperazin-1-yl)-N-(3-(2,4-dioxotetrahydropyrimidin-1(2H)-yl)-1-methyl-1H-indazol-7-yl)acetamide] the DC50 was 2 to 10 nM and the Y was “* (0<Y≤20%)”.
`Cn1nc(N2CCC(=O)NC2=O)c2cccc(NC(=O)CN3CCN(CCO[C@H]4CC[C@H](N5C(=S)N(c6cnc(C#N)c(C(F)(F)F)c6)C(=O)C5(C)C)CC4)C[C@@H]3C(F)(F)F)c21` [Cmpd 27, 2-((R)-4-(2-(((trans)-4-(3-(6-Cyano-5-(trifluoromethyl)pyridin-3-yl)-5,5-dimethyl-4-oxo-2-thioxoimidazolidin-1-yl)cyclohexyl)oxy)ethyl)-2-(trifluoromethyl)piperazin-1-yl)-N-(3-(2,4-dioxotetrahydropyrimidin-1(2H)-yl)-1-methyl-1H-indazol-7-yl)acetamide] was tested, and the DC50 was ≤ 2 nM and the Y was “** (20%<Y≤%)”.
`C[C@@H]1C[C@H](CCO[C@H]2CC[C@H](N3C(=S)N(c4cnc(C#N)c(C(F)(F)F)c4)C(=O)C3(C)C)CC2)C[C@H](C)N1CC(=O)Nc1cccc2c(N3CCC(=O)NC3=O)nn(C)c12` [Cmpd 28, 2-((2R,4r,6S)-4-(2-(((trans)-4-(3-(6-Cyano-5-(trifluoromethyl)pyridin-3-yl)-5,5-dimethyl-4-oxo-2-thioxoimidazolidin-1-yl)cyclohexyl)oxy)ethyl)-2,6-dimethylpiperidin-1-yl)-N-(3-(2,4-dioxotetrahydropyrimidin-1(2H)-yl)-1-methyl-1H-indazol-7-yl)acetamide] was tested, and the DC50 was ≤ 2 nM and the Y was “* (0<Y≤20%)”.
In the case of `C[C@@H]1C[C@H](OCCC[C@H]2CC[C@H](N3C(=S)N(c4ccc(C#N)c(C(F)(F)F)c4)C(=O)C3(C)C)CC2)C[C@H](C)N1CC(=O)Nc1cccc2c(N3CCC(=O)NC3=O)nn(C)c12` [Cmpd 29, 2-((2R,4r,6S)-4-(3-((trans)-4-(3-(4-Cyano-3-(trifluoromethyl)phenyl)-5,5-dimethyl-4-oxo-2-thioxoimidazolidin-1-yl)cyclohexyl)propoxy)-2,6-dimethylpiperidin-1-yl)-N-(3-(2,4-dioxotetrahydropyrimidin-1(2H)-yl)-1-methyl-1H-indazol-7-yl)acetamide], the DC50 is reported as 10 to 100 nM and the Y is reported as “* (0<Y≤20%)”.
For `C[C@@H]1C[C@H](OCCC[C@H]2CC[C@H](N3C(=S)N(c4cnc(C#N)c(C(F)(F)F)c4)C(=O)C3(C)C)CC2)C[C@H](C)N1CC(=O)Nc1cccc2c(N3CCC(=O)NC3=O)nn(C)c12` [Cmpd 30, 2-((2R,4r,6S)-4-(3-((trans)-4-(3-(6-Cyano-5-(trifluoromethyl)pyridin-3-yl)-5,5-dimethyl-4-oxo-2-thioxoimidazolidin-1-yl)cyclohexyl)propoxy)-2,6-dimethylpiperidin-1-yl)-N-(3-(2,4-dioxotetrahydropyrimidin-1(2H)-yl)-1-methyl-1H-indazol-7-yl)acetamide], the DC50 was 2 to 10 nM and the Y was “* (0<Y≤20%)”.
In the case of `C[C@@H]1C[C@H](OCC[C@H]2CC[C@H](N3C(=S)N(c4ccc(C#N)c(C(F)(F)F)c4)C(=O)C3(C)C)CC2)C[C@H](C)N1CC(=O)Nc1cccc2c(N3CCC(=O)NC3=O)nn(C)c12` [Cmpd 31, 2-((2R,4r,6S)-4-(2-((trans)-4-(3-(4-Cyano-3-(trifluoromethyl)phenyl)-5,5-dimethyl-4-oxo-2-thioxoimidazolidin-1-yl)cyclohexyl)ethoxy)-2,6-dimethylpiperidin-1-yl)-N-(3-(2,4-dioxotetrahydropyrimidin-1(2H)-yl)-1-methyl-1H-indazol-7-yl)acetamide], the DC50 is reported as 2 to 10 nM and the Y is reported as “** (20%<Y≤%)”.
With `C[C@@H]1C[C@H](OCC[C@H]2CC[C@H](N3C(=S)N(c4cnc(C#N)c(C(F)(F)F)c4)C(=O)C3(C)C)CC2)C[C@H](C)N1CC(=O)Nc1cccc2c(N3CCC(=O)NC3=O)nn(C)c12` [Cmpd 32, 2-((2R,4r,6S)-4-(2-((trans)-4-(3-(6-Cyano-5-(trifluoromethyl)pyridin-3-yl)-5,5-dimethyl-4-oxo-2-thioxoimidazolidin-1-yl)cyclohexyl)ethoxy)-2,6-dimethylpiperidin-1-yl)-N-(3-(2,4-dioxotetrahydropyrimidin-1(2H)-yl)-1-methyl-1H-indazol-7-yl)acetamide] the DC50 was 2 to 10 nM and the Y was “* (0<Y≤20%)”.
In the case of `C[C@@H]1C[C@H](OCCO[C@H]2CC[C@H](N3C(=S)N(c4ccc(C#N)c(C(F)(F)F)c4)C(=O)C3(C)C)CC2)C[C@H](C)N1CC(=O)Nc1cccc2c(N3CCC(=O)NC3=O)nn(C)c12` [Cmpd 33, 2-((2R,4r,6S)-4-(2-(((trans)-4-(3-(4-Cyano-3-(trifluoromethyl)phenyl)-5,5-dimethyl-4-oxo-2-thioxoimidazolidin-1-yl)cyclohexyl)oxy)ethoxy)-2,6-dimethylpiperidin-1-yl)-N-(3-(2,4-dioxotetrahydropyrimidin-1(2H)-yl)-1-methyl-1H-indazol-7-yl)acetamide], the DC50 is reported as 2 to 10 nM and the Y is reported as “** (20%<Y≤%)”.
For `C[C@@H]1C[C@H](OCCO[C@H]2CC[C@H](N3C(=S)N(c4cnc(C#N)c(C(F)(F)F)c4)C(=O)C3(C)C)CC2)C[C@H](C)N1CC(=O)Nc1cccc2c(N3CCC(=O)NC3=O)nn(C)c12` [Cmpd 34, 2-((2R,4r,6S)-4-(2-(((trans)-4-(3-(6-Cyano-5-(trifluoromethyl)pyridin-3-yl)-5,5-dimethyl-4-oxo-2-thioxoimidazolidin-1-yl)cyclohexyl)oxy)ethoxy)-2,6-dimethylpiperidin-1-yl)-N-(3-(2,4-dioxotetrahydropyrimidin-1(2H)-yl)-1-methyl-1H-indazol-7-yl)acetamide], the DC50 was ≤ 2 nM and the Y was “** (20%<Y≤%)”.
